Source: patent publication US20230106864A1, “COMPOSITIONS AND METHODS FOR THE TREATMENT OF INTRACELLULAR BACTERIAL INFECTIONS” (Endolytix Technology, Inc., priority 2020, published 2023)

Each compound was assayed on M. abscessus (assay: Cell growth assay of M. abscessus with ABlα plus antibiotic, Fractional Inhibitory Concentration (FIC) index). Settings: antibiotic in combination with ABlα; FIG. 5.
Type: cell-based, Mycobacterium abscessus
`C[C@@H](O)[C@H]1C(=O)N2C(C(=O)[O-])=C(SC3Cn4cnc[n+]4C3)[C@H](C)[C@H]12` (stereo partly drawn) [biapenem] was tested, and the “effect on attenuation of M. abscessus growth by FIC index” value (shortened to “effect on attenuation … by FIC index”) was “synergistic”.
In the case of `CO[C@@]1(NC(=O)Cc2cccs2)C(=O)N2C(C(=O)O)=C(COC(N)=O)CS[C@@H]21` [cefoxitin], the “effect on attenuation … by FIC index” value is reported as “synergistic”.
`NCC[C@H](O)C(=O)N[C@@H]1C[C@H](N)[C@@H](O[C@H]2O[C@H](CN)[C@@H](O)[C@H](O)[C@H]2O)[C@H](O)[C@H]1O[C@H]1O[C@H](CO)[C@@H](O)[C@H](N)[C@H]1O` [amikacin] was tested, and the “effect on attenuation … by FIC index” value was “synergistic”.
